From patent US12629364B2, “Methods of treating cancers overexpressing CARM1 with EZH2 inhibitors and platinum-based antineoplastic drugs” (The Wistar Institute of Anatomy and Biology, priority 2016, dated 2026)

Key:
HOSE or FTE cells = assay: Colony formation assay, normal HOSE and FTE cells; format: cell-based, Human; details: 10 μM
Procedure: FIG. 33 illustrates relative growth of the indicated HOSE, FTE, and EOC cancer cell lines with high or low CARM1 expression treated with 10 μM GSK126 or vehicle in a colony formation assay as determined by NIH Image J quantification.
500 to 5,000 cell were plated into a 24 well tissue culture plate and treated with the indicated compounds. Medium was changed every three days with appropriate drug doses for 12 days or until control wells became confluent. Colonies were washed twice with PBS and fixed with 10% methanol and 10% acetic acid in distilled water. Fixed colonies were stained with 0.005% crystal violet. Integrated density was measured using NIH ImageJ software.

[1] = system: tumors formed by CARM1 knockout cells; assay: IHC and qRT-PCR of dissected CARM1 knockout tumors; format: in vivo, NSG mice
Procedure: FIGS. 82 to 84 illustrate immunohistochemical analysis for serial sections of tumors dissected from mice injected with CARM1 knockout A1847 cells. Serial sections of tumors dissected from the indicated treatment groups described in FIGS. 73 to 75 were subjected to immunohistochemical staining for H3K27Me3, E7H2, cleaved caspase 3, and Ki67 (FIG. 82). Scale bar=50 μm. Histological score (H-score) of the indicated proteins was calculated for 3 separate fields from 5 tumors from 5 individual mice from each of the indicated groups (FIG. 83). Expression of the indicated EZH2/BAF155 target genes was determined by qRT-PCR in the tumors dissected from the indicated treatment groups (FIG. 84).

Structure (SMILES): CC[C@H](C)n1cc(C)c2c(C(=O)NCc3c(C)cc(C)[nH]c3=O)cc(-c3ccc(N4CCNCC4)nc3)cc21 [GSK126, (S)-1-(sec-butyl)-N-((4,6-dimethyl-2-oxo-1,2-dihydropyridin-3-yl)methyl)-3-methyl-6-(6-(piperazin-1-yl)pyridin-3-yl)-1H-indole-4-carboxamide]
- growth of normal cells (HOSE or FTE cells): did not affect the growth of either HOSE or FTE cells
- expression of Ki67 ([1]; IHC): did not affect the expression of Ki67 and cleaved caspase 3
- expression of cleaved caspase 3 ([1]; IHC): did not affect the expression of Ki67 and cleaved caspase 3
- expression of EZH2/BAF155 target genes ([1]; qRT-PCR): did not increase the expression
